Results published in publication PMC11206245 (Pharmaceuticals, 2024).
Converted amounts (≈) assume the structure as drawn.

Assays:
healthy dogs = experiment: Study A dose-escalation protocol: tolerability, side and adverse effects; conditions: for Animals with increases in AST in plasma: reversible
Text: Control animals were the same dogs that, prior to treatment, received an intravenous injection of the placebo solution. After that, samples were collected for hematological and biochemical analyses, as described in Section 4.2, “Animal Selection and Care Procedures”.
Blood samples were collected for hematological (hemogram) and biochemical analyses, as described in Section 4.2, “Animal Selection and Care Procedures”. This study utilized a 6-step dose-escalation design for the treated dogs. […] Wash-out periods, ranging from 7 to 10 days, were observed between each dosage step. […] Blood samples were collected at various times, as specified in Section 4.4.1, “Peripheral Blood Sample Collection”. […] Peripheral blood samples for hematological and biochemical analyses were collected on days 2, 4, 7, and 10 [105].
Two separate clinical reports were used to document data obtained from clinical evaluations. A general clinical description was used to note the following information daily: whether the animal was alert, prostrate, depressed, apathetic or aggressive, drinking water, and eating food normally, as well as feces and urine evaluations and the presence of vomit. Every two days, we noted the following parameters: body temperature (°C, measured using a rectal thermometer), heart rate (beats/minute), respiratory rate (cycles/minute), external mucous membrane coloration (conjunctiva and oral), hydration (skin elasticity), superficial lymph node enlargement (submandibular and popliteal), stool consistency, presence of lesions or secretions in the eyes, presence of nasal secretion (quantity and type), coat status, presence of skin lesions and ectoparasites, temperament, presence of claudication, and coordination and balance. Hemograms were performed following blood collection. The following biochemical analyses were performed: total proteins, albumin (A), globulins (Gs), A/G ratio, total cholesterol, bilirubin, renal profile (urea and creatinine), and hepatic enzymatic profiles (ALP, ALT, AST, AF, and GGT).

[1] = cited from earlier work
[2] = design: method as in earlier work; conditions: mice with MCF-7 breast tumors, 40 mg/kg intravenous dose; ref National Institute of Cancer's guide, https://dtp.cancer.gov/timeline/posters/AGG_Geldamycin.pdf; cited from earlier work
[3] = Study A, healthy dogs n = 4, single IV dose 50 mg/m^2
[4] = Study A, healthy dogs n = 4, single IV dose 100 mg/m^2
[5] = Study A, healthy dogs n = 4, single IV dose 150 mg/m^2
[6] = Study A, healthy dogs n = 4, single IV dose 200 mg/m^2
[7] = Study A, healthy dogs n = 4, single IV dose 250 mg/m^2

Which “Dogs with bloody diarrhea” value (healthy dogs; Study A, 200 mg/m^2) does the source give for `C=CCNC1=C2C[C@@H](C)C[C@H](OC)[C@H](O)[C@@H](C)/C=C(\C)[C@H](OC(N)=O)[C@@H](OC)/C=C\C=C(/C)C(=O)NC(=CC1=O)C2=O` [17-AAG, 17-(allylamino)-17-demethoxygeldanamycin] here?
Its value is 75%.

And the “Dogs with bloody diarrhea” value (healthy dogs; Study A, 250 mg/m^2)?
Its value is 100%.

And the “Animals presenting nausea during administration” value (healthy dogs; Study A, dogs, 200 mg/m^2)?
Its value is “all four animals”.

And the “Animals presenting nausea during administration” value (healthy dogs; Study A, dogs, 250 mg/m^2)?
The value was “all four animals”.

And the “Animals with ALT alteration” value (healthy dogs; [3])?
Its value is 1 (25%) N (%).

What about the “Animals with AST alteration” value (healthy dogs; [3]) of the same compound?
Its value is 0 N (%).

What about the “Animals with bloody diarrhea” value (healthy dogs; [3]) of the same compound?
The value was 0 N (%).

And the “Animals with diarrhea (pasty feces)” value (healthy dogs; [3])?
The value was 0 N (%).

And the Animals with erythema (healthy dogs; [3])?
The Animals with erythema was 0 N (%).

And the Animals with hyperthermia (healthy dogs; [3])?
Its Animals with hyperthermia is 0 N (%).

And the Animals with nausea (healthy dogs; [3])?
The Animals with nausea was 0 N (%).

And the Animals with pruritus (healthy dogs; [3])?
The Animals with pruritus was 0 N (%).

And the Animals with vomit (healthy dogs; [3])?
Its Animals with vomit is 0 N (%).

What about the “Animals with ALT alteration” value (healthy dogs; [4]) of the same compound?
The value was 2 (50%) N (%).

What about the “Animals with AST alteration” value (healthy dogs; [4]) of the same compound?
The value was 2 (50%) N (%).

What about the “Animals with bloody diarrhea” value (healthy dogs; [4]) of the same compound?
The value was 0 N (%).

What about the “Animals with diarrhea (pasty feces)” value (healthy dogs; [4]) of the same compound?
Its value is 1 (25%) N (%).

What about the Animals with erythema (healthy dogs; [4]) of the same compound?
The Animals with erythema was 0 N (%).

And the Animals with hyperthermia (healthy dogs; [4])?
Its Animals with hyperthermia is 0 N (%).

What about the Animals with nausea (healthy dogs; [4]) of the same compound?
Its Animals with nausea is 0 N (%).

What about the Animals with pruritus (healthy dogs; [4]) of the same compound?
The Animals with pruritus was 0 N (%).

What about the Animals with vomit (healthy dogs; [4]) of the same compound?
Its Animals with vomit is 0 N (%).

And the “Animals with ALT alteration” value (healthy dogs; [5])?
The value was 3 (75%) N (%).

What about the “Animals with AST alteration” value (healthy dogs; [5]) of the same compound?
Its value is 2 (50%) N (%).

What about the “Animals with bloody diarrhea” value (healthy dogs; [5]) of the same compound?
The value was 0 N (%).

And the “Animals with diarrhea (pasty feces)” value (healthy dogs; [5])?
Its value is 1 (25%) N (%).

What about the Animals with erythema (healthy dogs; [5]) of the same compound?
Its Animals with erythema is 1 (25%) N (%).

And the Animals with hyperthermia (healthy dogs; [5])?
The Animals with hyperthermia was 1 (25%) N (%).

And the Animals with nausea (healthy dogs; [5])?
The Animals with nausea was 0 N (%).

What about the Animals with pruritus (healthy dogs; [5]) of the same compound?
The Animals with pruritus was 1 (25%) N (%).

What about the Animals with vomit (healthy dogs; [5]) of the same compound?
The Animals with vomit was 0 N (%).

And the “Animals with ALT alteration” value (healthy dogs; [6])?
The value was 3 (75%) N (%).

What about the “Animals with AST alteration” value (healthy dogs; [6]) of the same compound?
Its value is 4 (100%) N (%).

What about the “Animals with bloody diarrhea” value (healthy dogs; [6]) of the same compound?
Its value is 3 (75%) N (%).

What about the “Animals with diarrhea (pasty feces)” value (healthy dogs; [6]) of the same compound?
Its value is 1 (25%) N (%).

What about the Animals with erythema (healthy dogs; [6]) of the same compound?
Its Animals with erythema is 2 (50%) N (%).

And the Animals with hyperthermia (healthy dogs; [6])?
The Animals with hyperthermia was 0 N (%).

What about the Animals with nausea (healthy dogs; [6]) of the same compound?
Its Animals with nausea is 4 (100%) N (%).

What about the Animals with pruritus (healthy dogs; [6]) of the same compound?
The Animals with pruritus was 3 (75%) N (%).

And the Animals with vomit (healthy dogs; [6])?
The Animals with vomit was 1 (25%) N (%).

What about the “Animals with ALT alteration” value (healthy dogs; [7]) of the same compound?
Its value is 4 (100%) N (%).

And the “Animals with AST alteration” value (healthy dogs; [7])?
Its value is 4 (100%) N (%).

And the “Animals with bloody diarrhea” value (healthy dogs; [7])?
The value was 4 (100%) N (%).

What about the “Animals with diarrhea (pasty feces)” value (healthy dogs; [7]) of the same compound?
Its value is 1 (25%) N (%).

What about the Animals with erythema (healthy dogs; [7]) of the same compound?
Its Animals with erythema is 4 (100%) N (%).

What about the Animals with hyperthermia (healthy dogs; [7]) of the same compound?
The Animals with hyperthermia was 1 (25%) N (%).

What about the Animals with nausea (healthy dogs; [7]) of the same compound?
Its Animals with nausea is 4 (100%) N (%).

And the Animals with pruritus (healthy dogs; [7])?
Its Animals with pruritus is 4 (100%) N (%).

And the Animals with vomit (healthy dogs; [7])?
The Animals with vomit was 1 (25%) N (%).

And the “Animals with increases in AST in plasma” value (healthy dogs; dogs, 100 mg/m^2)?
The value was 50%.

What about the “Animals with increases in AST in plasma” value (healthy dogs; dogs, 150 mg/m^2) of the same compound?
The value was 50%.

And the “Animals with increases in AST in plasma” value (healthy dogs; dogs, 200 mg/m^2)?
Its value is 100%.

And the “Animals with increases in AST in plasma” value (healthy dogs; dogs, 250 mg/m^2)?
The value was 100%.

What about the maximum tolerable dose (healthy dogs; dogs, Study A, IV) of the same compound?
Its maximum tolerable dose is 150 mg/m^2.

What about the “Solubility in Dimethyl Sulfoxide (DMSO)” value ([1]; according to PubChem) of the same compound?
The value was 100 mM (≈ 58.6 mg/mL).

And the Solubility in ethanol ([1]; according to PubChem)?
The Solubility in ethanol was 10 mM (≈ 5.86 mg/mL).

And the Aqueous solubility ([1]; aqueous)?
The Aqueous solubility was “approximately 0.01 mg/mL”.

And the maximum plasma half-life [2]?
Its maximum plasma half-life is 4.4 h.
